Test results taken from patent EP0285267A2, “Pyridine derivatives for treatment and prevention of liver damage, and their preparation” (YAMANOUCHI PHARMACEUTICAL CO. LTD., priority 1987, dated 1988).

What was measured:
[1] = tested on: serum GPT elevation due to carbon tetrachloride liver damage; assay: Carbon tetrachloride induced liver damage in rats, inhibition of serum GPT elevation; type: in vivo, Male Sprague Dawley rats; details: given twice (1 hour before and 3 hours after carbon tetrachloride 1 ml/kg orally), blood 24 hours after, route not given
Description: The experimental liver damage was induced with carbon tetrachloride as the challenging agent. Carbon tetrachloride caused liver damage resembling that of alcohol-induced liver injury.
Male Sprague Dawley rats weighing around 160 grams were used. Carbon tetrachloride was dissolved in olive oil to obtain 20% solution, which was administed in doses of 5ml/kg orally (carbon tetrachloride: 1 ml/ kg). The test compounds were suspended in Cremophor buffer for intraperitoneal administration, and in 0.5% methyl cellulose solution for oral administration; and the test solutions were administered in doses of 5ml/kg respectively. The administration of the test compound was conducted twice, namely, 1 hour before and 3 hours after the administration of carbon tetrachloride. 24 hours after the administration of carbon tetrachloride, blood was collected via the great abdominal vein, and the level of serum GPT was measured. […] Thus, the compounds of this invention are usuful for agents for treatment and prevention of liver damage.
Other compounds, of formula I-B, were also found to have activity inhibiting the elevation of GPT due to carbon tetrachloride administration.

[2] = Solubility in water (statement); type: physicochemical; details: qualitative statement
[3] = Absorbability / bioavailability (statement); type: in vivo; details: qualitative statement; oral suspension in 0.5 % methyl cellulose
[4] = tested on: increase in GPT level, galactosamine-induced liver damage; assay: D-galactosamine challenge in rats (test compound in 0.5 % methyl cellulose), inhibition of increase in serum GPT; type: in vivo, SD male rats; details: 30 mg/kg oral in 0.5 % methyl cellulose, twice (1 hour before and 3 hours after D-galactosamine 425mg/kg i.p.), blood 24 hours after
Description: Experimental liver damage was induced with D-galactosamine as the challenging agent. Liver damage caused by D-galactosamine resembled that of acute hepatitis. The galactosamine hepatitis model is described in known prior art.
Animals used: SD male rats (7 week age, about 220 g body weight)
Administration method of the challenge compound: • D-galactosamine was dissolved in a physiological sodium chloride aqueous solution, and this solution was administered intraperitoneally to give galactosamine-induced liver damage. (Administered dose: 425mg/4mllkg) Administration method of the test compound: The test compound was suspended in 0.5 % methyl cellulose solution, and administered in doses of 30 mg/5 mi/kg, orally. The test compound was administered twice (1 hour before the D-galactosamine administration and 3 hours after its administration). 24 hours after the D-galactosamine administration, blood was obtained from the pentobarbital-anesthetized rats,and the level of serum-GPT was determined.

Molecule | Inhibiting effect (%) (30mg/kg administration) [1] | Inhibition rate (%) (30mg/kg, oral administration) [4] | other results
COC(=O)c1c(C)nc(C)c(C(=O)OC)c1-c1ccc2c(c1OC)OCO2 [Example 2, dimethyl 4-(2-methoxy-3,4-methylenedioxy)phenyl-2,6-dimethylpyridine-3,5-dicarboxylate] | 81.1 |  | 
CCOc1c(N)c2c(c(OCC)c1OCC)C(C1c3c(cc4c(c3OC)OCO4)CCN1C)OC2=O (stereo not shown) [Tritoqualine] |  | 0 | solubility in water [2]: difficultly soluble in water; bioavailability (absorbability) [3]: low bioavailability
COC(=O)C1=C(C)NC(C)=C(C(=O)OC)C1c1ccc2c(c1C(=O)OC)OCO2 [Example 7, dimethyl 4-(2-methoxycarbonyl-3,4-meth-lenedioxy)phenyl-2,6-dimethyl-1,4-dihydropyridine-3,5-dicarboxylate] | 74.9 | 70.7 | 
COC(=O)C1=C(C)NC(C)=C(C(=O)OC)C1c1ccccc1C(=O)OC [Example C, dimethyl 4-(2-methoxycarbonyl)phenyl-2,6-dimethyl-1,4-dihydropyridine-3,5-dicarboxylate] | 91.6 |  | 
dimethyl 4-(3,4-methylenedioxy)phenyl-2,6-dimethyl-1,4-dihydropyridine-3,5-dicarboxylate [Example A] | 68.6 |  | 
COC(=O)c1c(C)nc(C)c(C(=O)OC)c1-c1c([N+](=O)[O-])ccc2c1OCO2 [Example 36, Dimethyl 4-(2,3-methylenedioxy-6-nitro)phenyl-2,6-dimethylpyridine-3,5-dicarboxylate] | 89.7 |  | 
COC(=O)C1=C(C)NC(C)=C(C(=O)OC)C1c1cc2c(cc1Br)OCO2 [Example 22, Dimethyl 4-(3,4-methylenedioxy-6-bromo)phenyl-2,6-dimethyl-1,4-dihydropyridine-3,5-dicarboxylate] | 82.3 |  | 
COC(=O)c1c(-c2c(C(=O)OC)c(C)nc(C)c2C(=O)OC)cc(OC)c2c1OCO2 [Example 14] |  | 67.8 | 
COC(=O)c1c(C)nc(C)c(C(=O)OC)c1-c1cccc2c1OCO2 [Example U, dimethyl 4-(2,3-methylenedioxy)phenyl-2,6-dimethylpyridine-3,5-dicarboxylate] | 76.0 |  | 
COC(=O)C1=C(C)NC(C)=C(C(=O)OC)C1c1cccc2c1OCO2 [Example P, dimethyl 4-(2,3-methylenedioxy)phenyl-2,6-dimethyl-1,4-dihydropyridine-3,5-dicarboxylate] | 85.4 |  | 
